Measured values reported in patent publication US20150087673A1, “METHODS FOR USING AND BIOMARKERS FOR AMPK-ACTIVATING COMPOUNDS” (RIGEL PHARMACEUTICALS, INC., priority 2013, published 2015).

System: AMPK
Experiment: AMPK activation assay (enzyme-linked immunosorbent assay)
Type: cell-based
Summary of the method: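 Kit-based immunoassay; compounds screened as activators; standard reagents and protocol.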

| Structure (SMILES) | EC50 |
| --- | --- |
| N#Cc1ccc(CN2CCC(NC(=O)c3ccc(C(=O)N4CCC(C(O)c5ccc(F)cc5)CC4)cn3)CC2)cc1 (stereo not drawn) [Compound 142, N-(1-(4-cyanobenzyl)piperidin-4-yl)-5-(4-((4-fluorophenyl)(hydroxy)methyl)piperidine-1-carbonyl)picolinamide] | < 500 nM |
| COc1ccc(OC2CCN(C(=O)c3ccc(C(=O)NC4CCN(Cc5ccc(C#N)cc5)CC4)nc3)CC2)cc1 [Compound 143, N-(1-(4-cyanobenzyl)piperidin-4-yl)-5-(4-(4-methoxyphenoxy)piperidine-1-carbonyl)picolinamide] | < 500 nM |
| N#Cc1ccc(CN2CCc3ccc(NC(=O)c4ccc(C(=O)NCc5ccc(F)cc5)cn4)cc3C2)cc1 [Compound 144, N2-(2-(4-cyanobenzyl)-1,2,3,4-tetrahydroisoquinolin-7-yl)-N5-(4-fluorobenzyl)pyridine-2,5-dicarboxamide] | 500 to 1000 nM |
| Cc1ccc(CC2CCN(C(=O)c3ccc(C(=O)NC4CCN(Cc5ccc(C#N)cc5)CC4)nc3)CC2)cc1 [Compound 145, N-(1-(4-cyanobenzyl)piperidin-4-yl)-5-(4-(4-methylbenzyl)piperidine-1-carbonyl)picolinamide] | < 500 nM |
| COc1ccc(CC2CCN(C(=O)c3ccc(C(=O)NC4CCN(Cc5ccc(C#N)cc5)CC4)nc3)CC2)cc1F [Compound 146, N-(1-(4-cyanobenzyl)piperidin-4-yl)-5-(4-(3-fluoro-4-methoxybenzyl)piperidine-1-carbonyl)picolinamide] | < 500 nM |
| COc1cccc(CC2CCN(C(=O)c3ccc(C(=O)NC4CCN(Cc5ccc(C#N)cc5)CC4)nc3)CC2)c1 [Compound 147, N-(1-(4-cyanobenzyl)piperidin-4-yl)-5-(4-(3-methoxybenzyl)piperidine-1-carbonyl)picolinamide] | < 500 nM |
| N#Cc1ccc(CN2CCC(NC(=O)c3ccc(C(=O)NCCOc4ccc(F)cc4)cn3)CC2)cc1 [Compound 149, N2-(1-(4-cyanobenzyl)piperidin-4-yl)-N5-(2-(4-fluorophenoxy)ethyl)pyridine-2,5-dicarboxamide] | 500 to 1000 nM |
| N#Cc1ccc(O[C@H]2CC[C@@H](NC(=O)c3ccc(C(=O)N4CCN(Cc5ccc(F)cc5)CC4)cn3)CC2)cc1 [Compound 150, N-(cis-4-(4-cyanophenoxy)cyclohexyl)-5-(4-(4-fluorobenzyl)piperazine-1-carbonyl)picolinamide] | < 500 nM |
| N#Cc1ccc(CN2CCC(NC(=O)c3ccc(C(=O)N4CCCC(Cc5ccc(F)cc5)C4)cn3)CC2)cc1 (stereo not drawn) [Compound 152, N-(1-(4-cyanobenzyl)piperidin-4-yl)-5-(3-(4-fluorobenzyl)piperidine-1-carbonyl)picolinamide] | < 500 nM |
| N#Cc1ccc(CN2CCC(NC(=O)c3ccc(C(=O)N4CCCCC4Cc4ccc(F)cc4)cn3)CC2)cc1 (stereo not drawn) [Compound 153, N-(1-(4-cyanobenzyl)piperidin-4-yl)-5-(2-(4-fluorobenzyl)piperidine-1-carbonyl)picolinamide] | 1000 to 5000 nM |
| N#Cc1ccc(CN2CCC(NC(=O)c3ccc(C(=O)N4CCC(C(=O)c5ccc(Cl)cc5)CC4)cn3)CC2)cc1 [Compound 154, 5-(4-(4-chlorobenzoyl)piperidine-1-carbonyl)-N-(1-(4-cyanobenzyl)piperidin-4-yl)picolinamide] | < 500 nM |
| N#Cc1ccc(CN2CCC(NC(=O)c3ccc(C(=O)N4CCC(Oc5cccc(C#N)c5)CC4)cn3)CC2)cc1 [Compound 155, N-(1-(4-cyanobenzyl)piperidin-4-yl)-5-(4-(3-cyanophenoxy)piperidine-1-carbonyl)picolinamide] | < 500 nM |
| N#Cc1ccc(CN2CCC(NC(=O)c3ccc(C(=O)N4CCC(Oc5ccc(C#N)c(Cl)c5)CC4)cn3)CC2)cc1 [Compound 156, 5-(4-(3-chloro-4-cyanophenoxy)piperidine-1-carbonyl)-N-(1-(4-cyanobenzyl)piperidin-4-yl)picolinamide] | < 500 nM |

Second part, the molecule after the results:

| EC50 | Structure (SMILES) |
| --- | --- |
| < 500 nM | N#Cc1ccc(CN2CCC(NC(=O)c3ccc(C(=O)N4CCC(Oc5ccc(C(F)(F)F)cc5)CC4)cn3)CC2)cc1 [Compound 157, N-(1-(4-cyanobenzyl)piperidin-4-yl)-5-(4-(4-(trifluoromethyl)phenoxy)piperidine-1-carbonyl)picolinamide] |
| < 500 nM | N#Cc1ccc(CN2CCC(NC(=O)c3ccc(C(=O)N4CCC(Oc5ccc(F)c(F)c5)CC4)cn3)CC2)cc1 [Compound 158, N-(1-(4-cyanobenzyl)piperidin-4-yl)-5-(4-(3,4-difluorophenoxy)piperidine-1-carbonyl)picolinamide] |
| 1000 to 5000 nM | N#Cc1ccc(CN2CCC(NC(=O)c3ncc(C(=O)N4CCN(Cc5ccc(F)cc5)CC4)cc3C#CCNC(=O)COCCOCCOCCOCCNC(=O)CCCC[C@@H]3SC[C@@H]4NC(=O)N[C@@H]43)CC2)cc1 [Compound 159, N-(1-(4-cyanobenzyl)piperidin-4-yl)-3-(5,20-dioxo-24-((3aS,4S,6aR)-2-oxohexahydro-1H-thieno[3,4-d]imidazol-4-yl)-7,10,13,16-tetraoxa-4,19-diazatetracos-1-ynyl)-5-(4-(4-fluorobenzyl)piperazine-1-carbonyl)picolinamide] |
| < 500 nM | COc1ccc(CN2CCC(NC(=O)c3ccc(C(=O)N4CCC(C(=O)c5ccc(F)cc5)CC4)cn3)CC2)cc1 [Compound 160, 5-(4-(4-fluorobenzoyl)piperidine-1-carbonyl)-N-(1-(4-methoxybenzyl)piperidin-4-yl)picolinamide] |
| < 500 nM | COc1ccc(CN2CCC(NC(=O)c3ccc(C(=O)N4CCC(Oc5ccc(F)cc5)CC4)cn3)CC2)cc1 [Compound 161, 5-(4-(4-fluorophenoxy)piperidine-1-carbonyl)-N-(1-(4-methoxybenzyl)piperidin-4-yl)picolinamide] |
| < 500 nM | COc1ccc(CN2CCC(NC(=O)c3ccc(C(=O)N4CCC(Oc5ccc(C#N)cc5)CC4)cn3)CC2)cc1 [Compound 162, 5-(4-(4-cyanophenoxy)piperidine-1-carbonyl)-N-(1-(4-methoxybenzyl)piperidin-4-yl)picolinamide] |
| < 500 nM | COc1ccc(CN2CCC(NC(=O)c3ccc(C(=O)N4CCC(C(=O)c5ccc(OC)cc5)CC4)cn3)CC2)cc1 [Compound 163, 5-(4-(4-methoxybenzoyl)piperidine-1-carbonyl)-N-(1-(4-methoxybenzyl)piperidin-4-yl)picolinamide] |
| 500 to 1000 nM | CC(C)(C)OC(=O)NCC#Cc1cc(C(=O)N2CCN(Cc3ccc(F)cc3)CC2)cnc1C(=O)NC1CCN(Cc2ccc(C#N)cc2)CC1 [Compound 164, tert-butyl 3-(2-(1-(4-cyanobenzyl)piperidin-4-ylcarbamoyl)-5-(4-(4-fluorobenzyl)piperazine-1-carbonyl)pyridin-3-yl)prop-2-ynylcarbamate] |
| < 500 nM | N#Cc1ccc(CN2CCC(NC(=O)c3ccc(N4CCC(Oc5ccc(C#N)cc5)CC4)cn3)CC2)cc1 [Compound 165, N-(1-(4-cyanobenzyl)piperidin-4-yl)-5-(4-(4-cyanophenoxy)piperidin-1-yl)picolinamide] |
| < 500 nM | N#Cc1ccc(CN2CCC(NC(=O)c3ccc(C(=O)NC4CCN(c5ccc(C#N)cc5)CC4)cn3)CC2)cc1 [Compound 166, N2-(1-(4-cyanobenzyl)piperidin-4-yl)-N5-(1-(4-cyanophenyl)piperidin-4-yl)pyridine-2,5-dicarboxamide] |
| < 500 nM | N#Cc1ccc(O[C@H]2CC[C@@H](NC(=O)c3ccc(C(=O)N4CCC(Oc5ccc(F)cc5)CC4)cn3)CC2)cc1 [Compound 167, N-((cis)-4-(4-cyanophenoxy)cyclohexyl)-5-(4-(4-fluorophenoxy)piperidine-1-carbonyl)picolinamide] |
| < 500 nM | N#Cc1ccc(O[C@H]2CC[C@H](NC(=O)c3ccc(C(=O)N4CCC(C(=O)c5ccc(F)cc5)CC4)cn3)CC2)cc1 [Compound 168, N-((trans)-4-(4-cyanophenoxy)cyclohexyl)-5-(4-(4-fluorobenzoyl)piperidine-1-carbonyl)picolinamide] |
| 500 to 1000 nM | N#Cc1ccc(O[C@H]2CC[C@H](NC(=O)c3ccc(C(=O)N4CCC(Oc5ccc(F)cc5)CC4)cn3)CC2)cc1 [Compound 169, N-((trans)-4-(4-cyanophenoxy)cyclohexyl)-5-(4-(4-fluorophenoxy)piperidine-1-carbonyl)picolinamide] |
| > 10000 nM | O=C(Nc1ccc(C(=O)N2CCN(Cc3ccc(F)cc3)CC2)cn1)c1ccc(-c2ccccc2)cc1 [Compound 170, N-(5-(4-(4-fluorobenzyl)piperazine-1-carbonyl)pyridin-2-yl)biphenyl-4-carboxamide] |
| < 500 nM | COc1ccc(C(=O)C2CCN(C(=O)c3ccc(C(=O)N[C@H]4CC[C@@H](Oc5ccc(C#N)cc5)CC4)nc3)CC2)cc1 [Compound 171, N-((cis)-4-(4-cyanophenoxy)cyclohexyl)-5-(4-(4-methoxybenzoyl)piperidine-1-carbonyl)picolinamide] |
| < 500 nM | COc1ccc(OC2CCN(C(=O)c3ccc(C(=O)N[C@H]4CC[C@H](Oc5ccc(C#N)cc5)CC4)nc3)CC2)cc1 [Compound 172, N-((trans)-4-(4-cyanophenoxy)cyclohexyl)-5-(4-(4-methoxyphenoxy)piperidine-1-carbonyl)picolinamide] |
| < 500 nM | N#Cc1ccc(CN2CCC(C(=O)Nc3ccc(C(=O)N4CCC(Oc5ccc(F)cc5)CC4)cn3)CC2)cc1 [Compound 173, 1-(4-cyanobenzyl)-N-(5-(4-(4-fluorophenoxy)piperidine-1-carbonyl)pyridin-2-yl)piperidine-4-carboxamide] |
| < 500 nM | COc1ccc(OC2CCN(C(=O)c3ccc(C(=O)N[C@H]4CC[C@@H](Oc5ccc(C#N)cc5)CC4)nc3)CC2)cc1 [Compound 174, N-((cis)-4-(4-cyanophenoxy)cyclohexyl)-5-(4-(4-methoxyphenoxy)piperidine-1-carbonyl)picolinamide] |
| < 500 nM | N#Cc1ccc(CN2CCC(C(=O)Nc3ccc(C(=O)N4CCC(C(=O)c5ccc(F)cc5)CC4)cn3)CC2)cc1 [Compound 175, 1-(4-cyanobenzyl)-N-(5-(4-(4-fluorobenzoyl)piperidine-1-carbonyl)pyridin-2-yl)piperidine-4-carboxamide] |
| 1000 to 5000 nM | N#Cc1ccc(O[C@H]2CC[C@@H](NC(=O)c3ccc(C(=O)N4CC[C@H](Oc5ccc(F)cc5)C4)cn3)CC2)cc1 [Compound 176, N-((cis)-4-(4-cyanophenoxy)cyclohexyl)-5-((S)-3-(4-fluorophenoxy)pyrrolidine-1-carbonyl)picolinamide] |
